Source: PMC4422685, “A New APEH Cluster with Antioxidant Functions in the Antarctic Hemoglobinless Icefish Chionodraco hamatus” (PLoS ONE, 2015)

Key:
APEH-1Dl [1] = molecular target: T1, APEH-1Dl (Dicentrarchus labrax, UniProt A0A8C4H3D3); assay: exopeptidase (aminopeptidase) assay, pNA release; format: biochemical; settings: 15 °C
T1 construct: native, purified from red blood cells; 80 kDa monomer, about 300 kDa homotetramer; N-terminus 1AAESQPATEE; deposited cDNA covers only 208 aa of the C-terminal part
T1 sequence (A0A8C4H3D3 entry or part of it): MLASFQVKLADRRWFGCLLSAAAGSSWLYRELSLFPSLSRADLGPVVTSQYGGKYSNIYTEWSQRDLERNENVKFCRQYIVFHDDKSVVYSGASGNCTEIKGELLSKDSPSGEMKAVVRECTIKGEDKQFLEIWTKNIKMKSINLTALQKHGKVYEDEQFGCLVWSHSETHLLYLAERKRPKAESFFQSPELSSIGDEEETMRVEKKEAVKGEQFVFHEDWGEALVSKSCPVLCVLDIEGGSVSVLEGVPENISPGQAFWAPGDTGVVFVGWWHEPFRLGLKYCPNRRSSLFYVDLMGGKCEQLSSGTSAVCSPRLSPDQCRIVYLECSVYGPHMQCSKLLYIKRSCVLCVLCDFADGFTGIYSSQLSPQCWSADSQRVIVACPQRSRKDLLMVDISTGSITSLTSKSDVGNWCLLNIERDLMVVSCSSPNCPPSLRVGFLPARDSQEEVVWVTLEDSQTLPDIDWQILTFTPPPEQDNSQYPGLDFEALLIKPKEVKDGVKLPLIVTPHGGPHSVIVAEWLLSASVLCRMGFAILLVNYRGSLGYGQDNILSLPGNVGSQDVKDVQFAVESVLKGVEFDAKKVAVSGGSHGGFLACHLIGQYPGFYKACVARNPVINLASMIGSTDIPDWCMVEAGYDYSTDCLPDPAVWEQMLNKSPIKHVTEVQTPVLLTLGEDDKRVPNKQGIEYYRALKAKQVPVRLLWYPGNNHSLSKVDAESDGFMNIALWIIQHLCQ
Description: exopeptidase (aminopeptidase) assay, pNA release on APEH-1Dl

APEH-1Dl [2] = molecular target: T1, APEH-1Dl; assay: exopeptidase assay, fluorogenic AMC release; format: biochemical; settings: 15 °C
Description: exopeptidase assay, fluorogenic AMC release on APEH-1Dl

Row | Structure (SMILES) | Km (APEH-1Dl [1]) [µM] | Km (APEH-1Dl [2]) [µM]
1 | CC(=O)N[C@@H](C)C(=O)Nc1ccc([N+](=O)[O-])cc1 [Ac-Ala-pNA] | 28 | 
2 | CSCC[C@H](NC(C)=O)C(=O)Nc1ccc2c(C)cc(=O)oc2c1 [Ac-Met-AMC] |  | 52
